Here are results for 30 compounds from US11077100B2, “Tetrahydroquinoline derivatives as P2X7 receptor antagonists” (RaQualia Pharma Inc., priority 2017, dated 2021).

In this test the target is human P2X7 (Homo sapiens (Human), UniProt Q99572). The test can be described thus: Human P2X7 functional assay (Ca2+ influx, Fluo-4, FDSS). The format is cell-based. The following applies: antagonistic activity with respect to the human P2X7 receptor; BzATP final concentration 80 microM. The protocol: The ability of the 5,6,7,8-tetrahydroquinoline and 6,7-dihydro-5H-cyclopenta[b]pyridine derivatives of the formula (I) to inhibit the P2X7 channel was measured by Ca^2+ influx assay and electrophysiology assay described below.
Human P2X7 Functional Assay
The functional activity of compounds was determined by measuring changes in intracellular calcium concentration using a Ca^2+-sensitive fluorescent dye, Fluo-4 (Molecular Probes). The changes in fluorescent signal were monitored by the cell imaging technology by Hamamatsu Photonics's Functional Drug Screening System (FDSS). Increases in intracellular Ca^2+ concentration were readily detected upon activation with BzATP.
HEK293 cells stably expressing human P2X7 (GenBank accession number BC011913) carrying a C-terminal FLAG tag were grown in T225 flasks, in a 5% CO2 humidified incubator to about 80% confluence. Media composition consisted of Dulbecco's Modified Eagle Medium (high glucose), 10% fetal bovine serum ([…]), 100 units/[…] Penicillin, 100 microg/mL Streptomycin and 250 microg/mL Geneticine.
1. Plate-out HEK293-human P2X7 cells (40 microL medium containing 10,000 cells per well) into poly-D-lysine coated 384-well plates (Corning) at 24 h prior to assay.
2. Incubate at 37° C. in 5% CO2.
3. Incubate the plate at 37° C. in 5% CO2 for 1 h.
5. Test compounds were prepared at 100× the test concentration in DMSO by serial dilution with Biomek-FX liquid handling instrument. 33× diluted compound solutions in assay buffer were prepared in intermediate compound plate with Biomek-NX liquid handling instrument. A further 3× dilution occurred in below steps 6 and 7.
6. Add 20 microL of 33× diluted compound solutions into each well and leave the plate for 10 min under the dark at room temperature.
7. Measure activity by FDSS as follows: • Set the assay plate on the stacker of FDSS. • Start the detection of fluorescence intensity at 540 nm by 480 nm exicitation. • After 30 seconds, add 20 microL of assay buffer containing 240 microM BzATP (final concentration 80 microM).
IC50 values for compounds of the present invention were determined from 7-point dose-response studies. Curves were generated using the average of duplicate wells for each data point. Finally, the IC50 values are calculated with the best-fit dose curve determined by XLfit (ID Business Solutions Ltd.).

pIC50: −log10 of the molar value.

The pIC50 is the negative decadic logarithm of the IC50, by convention in mol/L.

human P2X7, sequence (Q99572 whole entry): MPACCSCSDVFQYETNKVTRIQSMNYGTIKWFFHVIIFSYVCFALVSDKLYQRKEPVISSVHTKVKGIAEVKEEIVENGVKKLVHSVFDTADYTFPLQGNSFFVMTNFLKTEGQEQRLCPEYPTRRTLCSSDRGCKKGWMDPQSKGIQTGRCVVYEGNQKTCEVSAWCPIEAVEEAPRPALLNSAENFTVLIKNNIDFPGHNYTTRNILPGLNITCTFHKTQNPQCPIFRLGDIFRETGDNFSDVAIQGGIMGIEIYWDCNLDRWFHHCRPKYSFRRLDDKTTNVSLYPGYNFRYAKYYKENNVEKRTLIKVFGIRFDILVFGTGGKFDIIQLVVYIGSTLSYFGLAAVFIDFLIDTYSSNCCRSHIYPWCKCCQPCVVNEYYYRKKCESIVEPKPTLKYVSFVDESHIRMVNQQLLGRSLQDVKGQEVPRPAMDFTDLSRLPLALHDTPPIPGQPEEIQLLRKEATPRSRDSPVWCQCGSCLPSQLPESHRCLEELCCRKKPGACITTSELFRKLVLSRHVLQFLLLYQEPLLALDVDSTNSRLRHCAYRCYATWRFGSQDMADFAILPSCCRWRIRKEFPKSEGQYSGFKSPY

In the case of `O=C(NCc1ccc(F)c(F)c1)[C@]1(F)CC[C@H](O)c2ncccc21` [Example 202, (5S,8S)-N-(3,4-difluorobenzyl)-5-fluoro-8-hydroxy-5,6,7,8-tetrahydroquinoline-5-carboxamide], the pIC50 is 7.00 to 7.30.
For `O=C(NCc1cc(F)ccc1Cl)[C@]1(F)CC[C@H](O)c2ncccc21` [Example 204, (5S,8S)-N-(2-chloro-5-fluorobenzyl)-5-fluoro-8-hydroxy-5,6,7,8-tetrahydroquinoline-5-carboxamide] the value was 7.00 to 7.30.
For `O=C(NCc1ccc(OC(F)(F)F)cc1F)[C@]1(F)CC[C@H](O)c2ncccc21` [Example 207, (5S,8S)-5-fluoro-N-(2-fluoro-4-(trifluoromethoxy)benzyl)-8-hydroxy-5,6,7,8-tetrahydroquinoline-5-carboxamide] the value was 6.52 to 7.00; for `O=C(NCc1cc(C(F)(F)F)ccc1Cl)[C@]1(F)CC[C@H](O)c2ncccc21` [Example 209, (5S,8S)-N-(2-chloro-5-(trifluoromethyl)benzyl)-5-fluoro-8-hydroxy-5,6,7,8-tetrahydroquinoline 5-carboxamide], 6.52 to 7.00; for `O=C(NCc1ccc(Cl)cc1)[C@]1(F)CC[C@H](O)c2ncccc21` [Example 210, (5S,8S)-N-(4-chlorobenzyl)-5-fluoro-8-hydroxy-5,6,7,8-tetrahydroquinoline-5-carboxamide], 6.52 to 7.00.
To `COc1ccc(CNC(=O)[C@]2(F)CC[C@H](O)c3ncccc32)c(C(F)(F)F)c1` [Example 211, (5S,8S)-5-fluoro-8-hydroxy-N-(4-methoxy-2-(trifluoromethyl)benzyl)-5,6,7,8-tetrahydroquinoline-5-carboxamide] belongs 6.52 to 7.00; to `O=C(NCc1cc(Cl)cc(Cl)c1)[C@]1(F)CC[C@H](O)c2ncccc21` [Example 212, (5S,8S)-N-(3,5-dichlorobenzyl)-5-fluoro-8-hydroxy-5,6,7,8-tetrahydroquinoline-5-carboxamide], 6.52 to 7.00; to `O=C(NCc1nc(-c2ccc(Cl)cc2)cs1)[C@]1(F)CC[C@H](O)c2ncccc21` [Example 213, (5S,8S)-N-((4-(4-chlorophenyl)thiazol-2-yl)methyl)-5-fluoro-8-hydroxy-5,6,7,8-tetrahydroquinoline-5-carboxamide], 6.52 to 7.00.
`O=C(NCc1ccccc1CN1CCOCC1)[C@]1(F)CC[C@H](O)c2ncccc21` [Example 214, (5S,8S)-5-fluoro-8-hydroxy-N-(2-(morpholinomethyl)benzyl)-5,6,7,8-tetrahydroquinoline-5-carboxamide] had a pIC50 of 6.52 to 7.00.
For `O=C(N[C@H]1C[C@@H]1c1ccccc1)[C@]1(F)CC[C@H](O)c2ncccc21` [Example 215, (5S,8S)-5-fluoro-8-hydroxy-N-((1S,2R)-2-phenylcyclopropyl)-5,6,7,8-tetrahydroquinoline-5-carboxamide] the value was 6.52 to 7.00; for `Cc1ccc(Cl)c(CNC(=O)[C@]2(F)CC[C@H](O)c3ncccc32)c1F` [Example 216, (5S,8S)-N-(6-chloro-2-fluoro-3-methylbenzyl)-5-fluoro-8-hydroxy-5,6,7,8-tetrahydroquinoline-5-carboxamide], 6.52 to 7.00; for `O=C(NCc1c(F)cccc1F)[C@]1(F)CC[C@H](O)c2ncccc21` [Example 217, (5S,8S)-N-(2,6-difluorobenzyl)-5-fluoro-8-hydroxy-5,6,7,8-tetrahydroquinoline-5-carboxamide], 6.52 to 7.00.
To `O=C(N[C@H]1CCCc2ccccc21)[C@]1(F)CC[C@H](O)c2ncccc21` [Example 218, (5S,8S)-5-fluoro-8-hydroxy-N-((S)-1,2,3,4-tetrahydronaphthalen-1-yl)-5,6,7,8-tetrahydroquinoline-5-carboxamide] belongs 6.00 to 6.52.
Take `O=C(NCCOc1cccc(C(F)(F)F)c1)[C@]1(F)CC[C@H](O)c2ncccc21` [Example 219]: the pIC50 is 6.00 to 6.52.
To `O=C(NCC1(c2ccc(F)cc2)CC1)[C@]1(F)CC[C@H](O)c2ncccc21` [Example 220, (5S,8S)-5-fluoro-N-((1-(4-fluorophenyl)cyclopropyl)methyl)-8-hydroxy-5,6,7,8-tetrahydroquinoline-5-carboxamide] belongs 6.00 to 6.52.
For `O=C(N[C@@H]1C[C@H]1c1ccccc1)[C@]1(F)CC[C@H](O)c2ncccc21` [Example 222, (5S,8S)-5-fluoro-8-hydroxy-N-((1R,2S)-2-phenylcyclopropyl)-5,6,7,8-tetrahydroquinoline-5-carboxamide], the pIC50 was 6.00 to 6.52.
`O=C(NCc1ccccc1F)[C@]1(F)CC[C@H](O)c2ncccc21` [Example 223, (5S,8S)-5-fluoro-N-(2-fluorobenzyl)-8-hydroxy-5,6,7,8-tetrahydroquinoline-5-carboxamide] showed a pIC50 of 6.00 to 6.52.
For `COc1cccc(CNC(=O)[C@]2(F)CC[C@H](O)c3ncccc32)c1Cl` [Example 224, (5S,8S)-N-(2-chloro-3-methoxybenzyl)-5-fluoro-8-hydroxy-5,6,7,8-tetrahydroquinoline-5-carboxamide] the value was 6.00 to 6.52; for `O=C(N[C@H]1CCC[C@@H]1OCc1ccccc1)[C@]1(F)CC[C@H](O)c2ncccc21` [Example 225, (5S,8S)-N-((1S,2S)-2-(benzyloxy)cyclopentyl)-5-fluoro-8-hydroxy-5,6,7,8-tetrahydroquinoline-5-carboxamide], 6.00 to 6.52.
For `O=C(N[C@H]1CCc2ccccc21)[C@]1(F)CC[C@H](O)c2ncccc21` [Example 226, (5S,8S)-N-((S)-2,3-dihydro-1H-inden-1-yl)-5-fluoro-8-hydroxy-5,6,7,8-tetrahydroquinoline-5-carboxamide] the value was 5.52 to 6.00; for `CC(C)(C)CCNC(=O)[C@]1(F)CC[C@H](O)c2ncccc21` [Example 227, (5S,8S)-N-(3,3-dimethylbutyl)-5-fluoro-8-hydroxy-5,6,7,8-tetrahydroquinoline-5-carboxamide], 5.52 to 6.00; for `O=C(NCCOc1ccccc1)[C@]1(F)CC[C@H](O)c2ncccc21` [Example 228, (5S,8S)-5-fluoro-8-hydroxy-N-(2-phenoxyethyl)-5,6,7,8-tetrahydroquinoline-5-carboxamide], 5.52 to 6.00.
For `Cc1ncsc1C(CNC(=O)[C@]1(F)CC[C@H](O)c2ncccc21)N1CCC(F)(F)CC1` (stereo partly drawn) [Example 236, (5S,8S)-N-(2-(4,4-difluoropiperidin-1-yl)-2-(4-methylthiazol-5-yl)ethyl)-5-fluoro-8-hydroxy-5,6,7,8-tetrahydroquinoline-5-carboxamide] the value was 5.52 to 6.00; for `Cc1cnc2c(c1)[C@](F)(C(=O)NCc1ccc(Cl)cc1Cl)CC[C@@H]2O` [Example 243, (5S,8S)-N-(2,4-dichlorobenzyl)-5-fluoro-8-hydroxy-3-methyl-5,6,7,8-tetrahydroquinoline-5-carboxamide], 6.00 to 6.52; for `Cc1cnc2c(c1)[C@](F)(C(=O)NCc1ccc(F)cc1Cl)CC[C@@H]2O` [Example 244, (5S,8S)-N-(2-chloro-4-fluorobenzyl)-5-fluoro-8-hydroxy-3-methyl-5,6,7,8-tetrahydroquinoline-5-carboxamide], 5.52 to 6.00.
Compound `O=C1CC[C@@](F)(C(=O)NCc2ncc(Cl)cc2Cl)c2cccnc21` [Example 255, (S)-N-((3,5-dichloro-pyridin-2-yl)methyl)-5-fluoro-8-oxo-5,6,7,8-tetrahydroquinoline-5-carboxamide] showed a pIC50 of 6.52 to 7.00.
`C[C@H](NC(=O)[C@]1(F)CC[C@](C)(O)c2ncccc21)c1ccc(F)cc1Cl` [Example 271, (5S,8S)-N-((S)-1-(2-chloro-4-fluorophenyl)ethyl)-5-fluoro-8-hydroxy-8-methyl-5,6,7,8-tetrahydroquinoline-5-carboxamide] showed a pIC50 of 6.00 to 6.52.
With `C[C@@]1(O)CC[C@@](F)(C(=O)NCC2(N3CCOCC3)CCCCC2)c2cccnc21` [Example 275, (5S,8R)-5-fluoro-8-hydroxy-8-methyl-N-((1-morpholinocyclohexyl)methyl)-5,6,7,8-tetrahydroquinoline-5-carboxamide], the pIC50 is 5.52 to 6.00.
For `Cc1cnc2c(c1)[C@](F)(C(=O)NCc1ccc(F)cc1Cl)CC[C@]2(C)O` [Example 276, (5S,8S)-N-(2-chloro-4-fluorobenzyl)-5-fluoro-8-hydroxy-3,8-dimethyl-5,6,7,8-tetrahydroquinoline-5-carboxamide] the value was 6.00 to 6.52; for `CN(CCO)C[C@@]1(O)CC[C@](F)(C(=O)NCc2ccc(Cl)cc2Cl)c2cccnc21` [Example 278, (5R,8S)-N-(2,4-dichlorobenzyl)-5-fluoro-8-hydroxy-8-(((2-hydroxyethyl) (methyl)amino)methyl)-5,6,7,8-tetrahydroquinoline-5-carboxamide], 5.52 to 6.00.
